Key:
mice with pneumoconiosis [1] = assay: Mouse model of pneumoconiosis (intratracheal silica) with ATRA treatment, overall outcome; assay type: in vivo; settings: 10 mg/kg ATRA intragastrically 3 times a week for 4 weeks
mice with pneumoconiosis [2] = assay: Cardiopulmonary function test (RVSP, lung function IC and Cst); assay type: in vivo, mouse; settings: ATRA-treated mice with pneumoconiosis compared with control mice, 10 mg/kg intragastrically 3 times a week for 4 weeks
Procedure: Male C57BL/6J mice (aged 8-10 weeks and weighing 25-30 g) were selected and housed in an SPF grade laboratory animal room, and the model of pneumoconiosis was constructed by one-time intratracheal instillation of silica (Si); the mice were divided into four groups (n=9): (1) PBS+vehicle group: 40 μL of sterile phosphate-buffered saline (PBS) was administered by intratracheal instillation; two weeks later, corn oil was administered intragastrically 3 times a week, for 4 weeks; (2) PBS+ATRA group: 40 μL of sterile PBS was administered by intratracheal instillation; two weeks later, 10 mg/kg ATRA was administered intragastrically 3 times a week, for 4 weeks; (3) Si+vehicle group: a silica suspension (300 mg/mL, 40 μL) was administered by intratracheal instillation; two weeks later, corn oil was administered intragastrically 3 times a week, for 4 weeks; (4) Si+ATRA group: a silica suspension (300 mg/mL, 40 μL) was administered by intratracheal instillation; two weeks later, 10 mg/kg ATRA was administered intragastrically 3 times a week, for 4 weeks. All mice were sacrificed after 6 weeks, and the corresponding samples were collected for detection. An anesthetized mouse was fixed on an experimental bench, and an 8 gauge needle connected with a high-fidelity pressure sensor was inserted into the right ventricle to directly measure the invasive right ventricular systolic pressure (RVSP). The RVSP was recorded and analyzed by a Power Lab data acquisition and analysis system (PL 3504, AD Instruments, Australia). Mouse lung function was detected by a pulmonary function testing system (DSI Buxco, USA). Before experiment, the mouse was anesthetized by intraperitoneal injection of 0.4 mL/100 g 2% pentobarbital, tracheotomy was performed, a trachea cannula was inserted, and a ventilator was connected. […] A statistical analysis was conducted on indexes closely related to lung function changes of pneumoconiosis, including inspiratory capacity (IC) and quasi-static compliance (Cst).

mice with pneumoconiosis [3] = assay: Pathological staining of lung (HE, Szapiel score; Masson, Aschroft score); assay type: in vivo, mouse; settings: 10 mg/kg ATRA intragastrically 3 times a week for 4 weeks
Procedure: Male C57BL/6J mice (aged 8-10 weeks and weighing 25-30 g) were selected and housed in an SPF grade laboratory animal room, and the model of pneumoconiosis was constructed by one-time intratracheal instillation of silica (Si); the mice were divided into four groups (n=9): (1) PBS+vehicle group: 40 μL of sterile phosphate-buffered saline (PBS) was administered by intratracheal instillation; two weeks later, corn oil was administered intragastrically 3 times a week, for 4 weeks; (2) PBS+ATRA group: 40 μL of sterile PBS was administered by intratracheal instillation; two weeks later, 10 mg/kg ATRA was administered intragastrically 3 times a week, for 4 weeks; (3) Si+vehicle group: a silica suspension (300 mg/mL, 40 μL) was administered by intratracheal instillation; two weeks later, corn oil was administered intragastrically 3 times a week, for 4 weeks; (4) Si+ATRA group: a silica suspension (300 mg/mL, 40 μL) was administered by intratracheal instillation; two weeks later, 10 mg/kg ATRA was administered intragastrically 3 times a week, for 4 weeks. All mice were sacrificed after 6 weeks, and the corresponding samples were collected for detection. […] For HE staining, inflammation was scored based on Szapiel scores; for Masson staining, the severity of fibrosis was scored by Aschroft scores. The sections were scanned, photographed and counted by a 3D HISTECH digital slide scanner.

IL-1β and IL-6 = assay: ELISA of inflammatory factors in mouse BALF; assay type: in vivo; settings: mice with pneumoconiosis, 10 mg/kg ATRA intragastrically 3 times a week for 4 weeks
Procedure: Male C57BL/6J mice (aged 8-10 weeks and weighing 25-30 g) were selected and housed in an SPF grade laboratory animal room, and the model of pneumoconiosis was constructed by one-time intratracheal instillation of silica (Si); the mice were divided into four groups (n=9): (1) PBS+vehicle group: 40 μL of sterile phosphate-buffered saline (PBS) was administered by intratracheal instillation; two weeks later, corn oil was administered intragastrically 3 times a week, for 4 weeks; (2) PBS+ATRA group: 40 μL of sterile PBS was administered by intratracheal instillation; two weeks later, 10 mg/kg ATRA was administered intragastrically 3 times a week, for 4 weeks; (3) Si+vehicle group: a silica suspension (300 mg/mL, 40 μL) was administered by intratracheal instillation; two weeks later, corn oil was administered intragastrically 3 times a week, for 4 weeks; (4) Si+ATRA group: a silica suspension (300 mg/mL, 40 μL) was administered by intratracheal instillation; two weeks later, 10 mg/kg ATRA was administered intragastrically 3 times a week, for 4 weeks. All mice were sacrificed after 6 weeks, and the corresponding samples were collected for detection.
Concentrations of inflammatory factors IL-1β and IL-6 in mouse BALF were detected by using ELISA kits.

FN-1 and Col-I = assay: Western blot and qPCR of fibrosis factors in mouse lung tissue; assay type: in vivo; settings: mice with pneumoconiosis, 10 mg/kg ATRA intragastrically 3 times a week for 4 weeks
Procedure: Male C57BL/6J mice (aged 8-10 weeks and weighing 25-30 g) were selected and housed in an SPF grade laboratory animal room, and the model of pneumoconiosis was constructed by one-time intratracheal instillation of silica (Si); the mice were divided into four groups (n=9): (1) PBS+vehicle group: 40 μL of sterile phosphate-buffered saline (PBS) was administered by intratracheal instillation; two weeks later, corn oil was administered intragastrically 3 times a week, for 4 weeks; (2) PBS+ATRA group: 40 μL of sterile PBS was administered by intratracheal instillation; two weeks later, 10 mg/kg ATRA was administered intragastrically 3 times a week, for 4 weeks; (3) Si+vehicle group: a silica suspension (300 mg/mL, 40 μL) was administered by intratracheal instillation; two weeks later, corn oil was administered intragastrically 3 times a week, for 4 weeks; (4) Si+ATRA group: a silica suspension (300 mg/mL, 40 μL) was administered by intratracheal instillation; two weeks later, 10 mg/kg ATRA was administered intragastrically 3 times a week, for 4 weeks. All mice were sacrificed after 6 weeks, and the corresponding samples were collected for detection. Lung tissue proteins of all mice were extracted. […]

For `CC1=C(/C=C/C(C)=C/C=C/C(C)=C/C(=O)O)C(C)(C)CCC1` [ATRA, All-trans retinoic acid], the “cardiopulmonary function, inflammation, and fibrosis” value (mice with pneumoconiosis [1]) was “significantly improve”, the “inspiratory capacity (IC)” value (mice with pneumoconiosis [2]) was “improved to a certain extent” and the “quasi-static compliance (Cst)” value (mice with pneumoconiosis [2]) was “improved to a certain extent”. The “right ventricular systolic pressure (RVSP)” value (mice with pneumoconiosis [2]) was “lowered to a certain extent”, the “severity of fibrosis (Masson staining)” value (mice with pneumoconiosis [3]) was “reduce the severity” and the “severity of inflammation (HE staining)” value (mice with pneumoconiosis [3]) was “reduce the severity”. For the same compound, the “concentration of IL-1β in BALF” value (IL-1β and IL-6) was “lowered concentrations”, the “concentration of IL-6 in BALF” value (IL-1β and IL-6) was “lowered concentrations” and the “level of fibrosis factor Col-I in lung tissue (transcriptional)” value (FN-1 and Col-I) was “reduced levels”. The “level of fibrosis factor FN-1 in lung tissue (translational and transcriptional)” value (FN-1 and Col-I) was “reduced levels”.

Source: patent US20240041814A1, “USE OF REAGENT FOR DETECTING RETINOL METABOLITE IN PREPARATION OF TOOL FOR DIAGNOSING AND/OR TREATING PNEUMOCONIOSIS” (Institute of Basic Medical Sciences of Chinese Academy of …, priority 2022, published 2024)
